Experimental data reported in PubChem BioAssay (NCI).
Values joined by “and” are separate entries in the source; they are usually repeats but may differ in a detail not shown here. Identical values can stand only once.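 Five concentrations, 48 hours, 96-well plates. Abbreviation: GI50, concentration required for 50% inhibition of growth. Definition used: TGI = concentration required for complete inhibition of growth.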

What was measured:
Test in all cases: growth of human tumour cells (NCI), 48 h
[1] = system: SR leukemia
[2] = system: UO-31 renal
[3] = system: ACHN renal
[4] = system: MOLT-4 leukemia
[5] = system: A498 renal
[6] = system: IGROV1 ovarian
[7] = system: KM12 colon
[8] = system: EKVX NSCLC
[9] = system: HT29 colon
[10] = system: T-47D breast

Compound	GI50 [1]	TGI [1] [µM]	GI50 [2]	TGI [2]	GI50 [3]	TGI [3]	GI50 [4]	TGI [4] [µM]	GI50 [5]	TGI [5]	GI50 [6]	TGI [6] [µM]	GI50 [7]	TGI [7]	GI50 [8]	TGI [8]	GI50 [9]	TGI [9]	GI50 [10] [µM]	TGI [10]
O=C1/C(=C/c2ccc(Cl)cc2)CN(C(=O)C(Cl)Cl)C/C1=C\c1ccc(Cl)cc1	0.0395 µM	> 40.1	0.156 µM	0.3 µM	0.214 µM	0.475 µM	0.273 µM	> 28.1	0.211 µM	0.771 µM	0.178 µM	0.422	0.0912 µM	0.273 µM	0.292 µM	1.03 µM	0.0714 µM	1.43 µM	0.297	1.62 µM
COC(=O)[C@@H](C)C[C@H](Cc1ccccc1)NC(=O)c1csc([C@@H](C[C@H](C(C)C)N(C)C(=O)[C@@H](NC(=O)[C@H]2CCCCN2C)C(C)C)OC(C)=O)n1	–	> 25	0.000932 µM and 0.0025 µM	> 25 µM	0.000417 µM and 0.0025 µM	> 25 µM	0.0005 µM and 0.0025 µM	> 25	0.000176 µM and < 0.0025 µM	0.000694 µM and < 0.0025 µM	0.000308 µM and 0.0025 µM	> 25	–	> 25 µM	0.000617 µM and 0.00356 µM	> 25 µM	–	> 25 µM	> 25	> 25 µM
Cc1ccc(NC(=O)c2ccnc(N3CCCC3)c2)cc1-c1ccc(C(=O)NCC2CC2)cc1	13 µM	> 25	> 25 µM	> 25 µM	> 25 µM	> 25 µM	> 25 µM	> 25	> 25 µM	> 25 µM	> 25 µM	> 25	> 25 µM	> 25 µM	> 25 µM	> 25 µM	> 25 µM	> 25 µM	> 13.5	> 25 µM
O=C1/C(=C/C(Cl)=C/c2ccccc2)SC(=S)N1CCc1ccc(O)cc1	0.86 µM	> 100	1.29 µM	2.69 µM	1.67 µM	3.6 µM	2.2 µM	> 100	1.86 µM	3.51 µM	2.02 µM	4.93	1.49 µM	3.03 µM	1.97 µM	4.14 µM	2.11 µM	5.57 µM	2.02	5.61 µM
ON(CCc1ccccn1)Cc1ccccc1	–	> 100	–	> 100 µM	–	> 100 µM	–	> 100	–	> 100 µM	–	> 100	–	> 100 µM	–	> 100 µM	–	> 100 µM	–	> 100 µM
O=C1C=CC2(C=C1)CCN=c1c(O)c3c(c(O)c12)=NC=N3	10.6 µM and 93 µM	> 100	14.5 µM and > 100 µM	30.5 µM and > 100 µM	12.6 µM and > 100 µM	25.7 µM and > 100 µM	21.7 µM and > 100 µM	> 100	19.2 µM and > 100 µM	33.5 µM and > 100 µM	–	31	14.4 µM and > 100 µM	29.1 µM and > 100 µM	17 µM and > 100 µM	31.7 µM and > 100 µM	20.3 µM and > 100 µM	47.3 µM and > 100 µM	–	25.2 µM and > 100 µM
C[C@]12CCC(=O)C=C1CC[C@@H]1[C@@H]2CC[C@]2(C)C(=O)/C(=C/c3cccc(OCCN4CCOCC4)c3)C[C@@H]12	4.72 µM	22	12.1 µM	30 µM	18.7 µM	> 100 µM	–	–	18.5 µM	36.1 µM	23.5 µM	95.9	9.02 µM	> 100 µM	5.57 µM	42.3 µM	2.87 µM	16.2 µM	2.9	> 100 µM
COc1cccc2c1c1nc3cc(C)c(C)cc3nc1n2CCN(C)C	0.452 µM	8.7	0.337 µM	2.37 µM	0.433 µM	10.3 µM	0.498 µM	–	0.533 µM	1.9 µM	1.76 µM	10.7	1.83 µM	9.43 µM	2.29 µM	7.33 µM	1.68 µM	10.7 µM	2.76	13.6 µM
Cc1cccc(N=C2c3cc([N+](=O)[O-])ccc3-c3c2cc([N+](=O)[O-])cc3[N+](=O)[O-])c1	1.94 µM	5.36	10.9 µM	29.9 µM	3.36 µM	11.5 µM	3.64 µM	> 100	27.8 µM	> 100 µM	5.89 µM	> 100	5.06 µM	20 µM	5.08 µM	19.7 µM	4.11 µM	27.6 µM	1.99	4.78 µM
O=C(O)c1cccc(CC(Br)C(=O)O)c1 (configuration not stated)	–	> 100	–	> 100 µM	–	> 100 µM	–	> 100	–	> 100 µM	–	> 100	–	> 100 µM	–	> 100 µM	–	> 100 µM	–	> 100 µM
